# Measurements: patent US8927459B2, “Vegetation treatment” (Arctic, Inc., priority 2008, dated 2015)
# Assays:
# [1] = system: large crabgrass; assay: greenhouse-grown crabgrass treated with non-insulated CO2 prototype, visual percent control; format: in vivo; conditions: for % control: 2 lbs CO2; for percent control: 2-3 tiller greenhouse-grown, seven days after treatment (FIG. 2)
# Description: (§1) Greenhouse-grown crabgrass plants were treated with the prototype containing either an 8002 flat fan nozzle (which was measured to release 2 pounds of CO2 per minute) or with an 8004 flat fan nozzle (which releases 4 pounds of CO2 per minute), to determine if the rate of application affects the percent control achieved. Control means killing or death of the plants as determined by visual observation. The percent control is a visual rating of the treated plant compared to an untreated control plant. In other words, it is the percent of plant death. Trials were conducted in triplicate.
# Similarly, treatment for 15 seconds with the 2 lb/min nozzle results in 17 percent control with 0.5 pounds of CO2 dispensed, while treatment with the 4 lb/min nozzle for 5 seconds results in 12 percent control with 0.3 pounds of CO2 dispensed. From this study, it was concluded that for crabgrass, the total amount (dose) of CO2 applied correlates with % control. See FIG. 4, which graphs % control vs. CO2 dose with two different application rates.
# In the data presented in FIG. 3, the crabgrass plants are larger. They are at the 3-4 tiller stage, whereas the plants in the data presented in FIG. 2 were 2-3 tiller plants. The CO2 application controlled both plant sizes well, and with the larger plants the same trend of percent control corresponding to the total pounds of CO2 applied was observed. In both cases the LD50 is over 1 pound CO2/plant.
# (§2) Most commercial herbicides achieve 80% control or better. The prototype used 2 pounds of CO2 to achieve this level of control for one 6″ plant. At the 2 lb/plant dispensing rate, a commercial 25-lb cylinder of CO2 would only treat 10 plants; clearly efficiency increases were needed to create a viable backpack sprayer system. An insulating cone was attached around the nozzle with the expectation of possibly achieving a modest increase in efficiency, perhaps cutting the CO2 requirement by 20-50%.
# [2] = system: crabgrass; assay: field-grown crabgrass treated with CO2 prototype with insulating cone, percent control; format: in vivo; conditions: for % control: insulated prototype, 0.15 lbs CO2
# Description: as §1, §2
# Unexpectedly, a greater than ten-fold reduction in the CO2 usage was achieved (Table 1). The results are especially remarkable since field-grown plants (treated with the insulated design) are usually harder to kill than greenhouse-grown plants that were treated with the non-insulated design.
smiles,measurement,setting,value
"O=C=O [CO2, carbon dioxide]",% control,"[1]; 2-3 tiller greenhouse, non-insulated prototype",75%
same,LD50,"[1]; 2-3 tiller plants, non-insulated prototype",over 1 pound CO2/plant
same,percent control,"[1]; 2 lb/min nozzle, 15 seconds, 0.5 pounds of CO2 dispensed",17%
same,percent control,"[1]; 2 lb/min nozzle, 30 seconds, one pound of CO2 dispensed",40%
same,% control,"[1]; 3-4 tiller greenhouse, non-insulated prototype",87%
same,LD50,"[1]; 3-4 tiller plants, non-insulated prototype",over 1 pound CO2/plant
same,percent control,"[1]; 4 lb/min nozzle, 5 seconds, 0.3 pounds of CO2 dispensed",12%
same,percent control,"[1]; 4 lb/min nozzle, 15 seconds, one pound of CO2 dispensed",42%
same,amount of CO2 used to achieve 80% control or better,"[1]; non-insulated prototype, one 6″ plant",2 pounds
same,LD50 (lethal dose to 50% of plants),[1]; without insulated cone,2 pounds of CO2 per plant
same,% control,[2]; 2-3 tiller field,80+ %
same,% control,"[2]; 2-3 tiller field, listed as carbon dioxide",≥ 80%
same,% control,[2]; 3-4 tiller field,80+ %
same,% control,"[2]; 3-4 tiller field, listed as carbon dioxide",≥ 80%
same,LD50 (lethal dose to 50% of plants),[2]; with insulated cone,less than 0.2 lbs/CO2 per plant
